This is an account of results in PMC6934184, “Selective DNA-PKcs inhibition extends the therapeutic index of localized radiotherapy and chemotherapy” (The Journal of Clinical Investigation, 2019).

This test deals with T1, CSNK1E (CK1 epsilon) (Homo sapiens, UniProt P49674).
T1 construct: purchased Thermo Fisher Scientific (Life Technologies) SelectScreen
As to the kind of experiment: SelectScreen Z'LYTE. The test is classed as biochemical. The method, boiled down: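 Compound tested in SelectScreen activity assays, Z'LYTE for CSF1R, CDK1/cyclin B and MAP2K6 and Adapta for CAMK1. ATP for CAMK1 was listed as 10, and Km app was used for CSF1R. Results are expressed in percent.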

T1 sequence (P49674 whole entry): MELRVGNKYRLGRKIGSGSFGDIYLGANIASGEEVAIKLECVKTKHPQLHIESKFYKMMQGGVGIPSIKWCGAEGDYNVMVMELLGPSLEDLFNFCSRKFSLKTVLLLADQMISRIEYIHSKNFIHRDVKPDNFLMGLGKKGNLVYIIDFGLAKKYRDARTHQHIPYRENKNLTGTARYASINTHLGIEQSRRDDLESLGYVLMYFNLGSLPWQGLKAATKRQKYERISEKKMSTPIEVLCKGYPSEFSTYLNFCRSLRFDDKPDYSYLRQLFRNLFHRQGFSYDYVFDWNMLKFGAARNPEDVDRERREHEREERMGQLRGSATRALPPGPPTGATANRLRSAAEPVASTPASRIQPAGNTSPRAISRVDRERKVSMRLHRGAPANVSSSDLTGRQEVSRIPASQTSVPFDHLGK

As for `CN(C(=O)CN1CCOCC1)c1ccc2sc3c(-c4cccc5c(=O)cc(N6CC7CCC(C6)O7)oc45)cccc3c2c1` [NU5455], the inhibition at 1 µM was -10.9%.

For orientation: inhibition means the change of the read-out against control, counted positive when it falls.
